This is an account of results in patent US20260042764A1, “COMPOSITIONS AND METHODS FOR INHIBITION OF KRAS” (TheRas, Inc., priority 2022, published 2026).

The target of the assay is T1, Avi-KRAS G12C (2-169) GTP/RAF1 RBD-3xFLAG (51-131) (Homo sapiens, UniProt P01116, G12C).
T1 construct: Avi-KRAS G12C (2-169)
T1 sequence (P01116 2-169 isoform P01116-2 G12C): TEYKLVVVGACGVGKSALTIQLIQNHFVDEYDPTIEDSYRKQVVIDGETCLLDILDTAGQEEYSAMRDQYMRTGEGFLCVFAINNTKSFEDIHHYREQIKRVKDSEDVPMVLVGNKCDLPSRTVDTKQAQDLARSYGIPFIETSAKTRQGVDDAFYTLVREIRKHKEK
In words: Raf1-KRAS G12C-GTP disruption HTRF assay (Biological Example 3). As to conditions: KRAS G12C, GTP-loaded. Type of assay: binding. The procedure, abridged:
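Compounds were titrated 10-point, 3-fold from 30 μM against preformed KRAS-GTP:RAF1 RBD (51-131) complexes at 50 nM, using KRAS 2-169 as WT, G12C, G12D or G12V. After 1 h at room temperature in Tris pH 7.5 buffer with MgCl2 and 10% DMSO, time-resolved fluorescence was read. Results are percent activity versus DMSO.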
`C[C@@H]1[C@H](N(C)c2nc(OC[C@@]34CCCN3C[C@H](F)C4)nc3c(F)c(-c4ccc(F)c5sc(N)c(C#N)c45)c(C(F)(F)F)cc23)CCN1C(=O)C1CC1` (atropisomer, axis not shown) [Compound 333] returned an IC50 of 100 to 1000 nM.

In turn, `CCC(=O)N1CC[C@@H](N(C)c2nc(OC[C@@]34CCCN3C[C@H](F)C4)nc3c(F)c(-c4ccc(F)c5sc(N)c(C#N)c45)c(C(F)(F)F)cc23)[C@H]1C` (atropisomer, axis not shown) [Compound 335] showed a 50% inhibitory concentration (IC50) of 100 to 1000 nM.

For `CCN(c1nc(OC[C@@]23CCCN2C[C@H](F)C3)nc2c(F)c(-c3ccc(F)c4sc(N)c(C#N)c34)c(C(F)(F)F)cc12)[C@H]1CCN(C(=O)[C@H]2CCO2)C1` (atropisomer, axis not shown) [Compound 577], the half-maximal inhibitory concentration (IC50) was ≤ 100 nM.

With `C[C@H](c1cccnc1N)N(C)c1nc(OC[C@@]23CCCN2C[C@H](F)C3)nc2c(F)c(-c3ccc(F)c4sc(N)c(C#N)c34)c(C(F)(F)F)cc12` (atropisomer, axis not shown) [Compound 600], the IC50 was ≤ 100 nM.

Turning to `CCN(c1nc(OC[C@@]23CCCN2C[C@H](F)C3)nc2c(F)c(-c3ccc(F)c4sc(N)c(C#N)c34)c(C(F)(F)F)cc12)[C@H]1CCN(C(=O)[C@@H]2CCO2)C1` (atropisomer, axis not shown) [Compound 603], the IC50 was ≤ 100 nM.

For `CCN(c1nc(OC[C@@]23CCCN2C[C@H](F)C3)nc2c(F)c(-c3ccc(F)c4sc(N)c(C#N)c34)c(C(F)(F)F)cc12)[C@H]1C[C@@H]2CN(C)C(=O)N2C1` (atropisomer, axis not shown) [Compound 605], the IC50 lay within 100 to 1000 nM.

In the case of `CCN(c1nc(OC[C@@]23CCCN2C[C@H](F)C3)nc2c(F)c(-c3ccc(F)c4sc(N)c(C#N)c34)c(C(F)(F)F)cc12)[C@H]1CCN(C(=O)N2CC(OC)C2)C1` (atropisomer, axis not shown) [Compound 607], the IC50 was ≤ 100 nM.

`CC(=O)N1CC[C@H](N(c2nc(OC[C@@]34CCCN3C[C@H](F)C4)nc3c(F)c(-c4ccc(F)c5sc(N)c(C#N)c45)c(C(F)(F)F)cc23)C2CC2)C1` (atropisomer, axis not shown) [Compound 608] gave an IC50 of 100 to 1000 nM.

As to `CCN(c1nc(OC[C@@]23CCCN2C[C@H](F)C3)nc2c(F)c(-c3ccc(F)c4sc(N)c(C#N)c34)c(C(F)(F)F)cc12)[C@H]1CCN(C(=O)CC(F)F)C1` (atropisomer, axis not shown) [Compound 611], the half-inhibitory concentration (IC50) was ≤ 100 nM.

As to `CCN(c1nc(OC[C@@]23CCCN2C[C@H](F)C3)nc2c(F)c(-c3ccc(F)c4sc(N)c(C#N)c34)c(C(F)(F)F)cc12)[C@H]1CC(=O)N(CC(F)F)C1` (atropisomer, axis not shown) [Compound 613], the IC50 was ≤ 100 nM.

The compound `CCN(c1nc(OC[C@@]23CCCN2C[C@H](F)C3)nc2c(F)c(-c3ccc(F)c4sc(N)c(C#N)c34)c(C(F)(F)F)cc12)[C@H]1CC(=O)N(C)C1` (atropisomer, axis not shown) [Compound 614] came in with a half-maximal inhibitory concentration (IC50) of 100 to 1000 nM.

Turning to `CCN(c1nc(OC[C@@]23CCCN2C[C@H](F)C3)nc2c(F)c(-c3ccc(F)c4sc(N)c(C#N)c34)c(C(F)(F)F)cc12)[C@H]1CC(=O)N(C2CC2)C1` (atropisomer, axis not shown) [Compound 615], the 50% inhibitory concentration (IC50) was ≤ 100 nM.

In turn, `CCN(c1nc(OC[C@@]23CCCN2C[C@H](F)C3)nc2c(F)c(-c3ccc(F)c4sc(N)c(C#N)c34)c(C(F)(F)F)cc12)[C@H]1CCN(C(=O)N2CCN(C(C)=O)CC2)C1` (atropisomer, axis not shown) [Compound 619] gave a half-maximal inhibitory concentration (IC50) of 100 to 1000 nM.

Take `CC(=O)N1CC[C@H](N(CCF)c2nc(OC[C@@]34CCCN3C[C@H](F)C4)nc3c(F)c(-c4ccc(F)c5sc(N)c(C#N)c45)c(C(F)(F)F)cc23)C1` (atropisomer, axis not shown) [Compound 622]: the half-maximal inhibitory concentration (IC50) was in the range of 100 to 1000 nM.

Turning to `CCN1C[C@@H](N(C)c2nc(OC[C@@]34CCCN3C[C@H](F)C4)nc3c(F)c(-c4ccc(F)c5sc(N)c(C#N)c45)c(C(F)(F)F)cc23)CC1=O` (atropisomer, axis not shown) [Compound 636], the IC50 fell in the range of 100 to 1000 nM.

On to `CCN(c1nc(OC[C@@]23CCCN2C[C@H](F)C3)nc2c(F)c(-c3ccc(F)c4sc(N)c(C#N)c34)c(C(F)(F)F)cc12)[C@H]1CCN(C(=O)C2CN(C(C)=O)C2)C1` (atropisomer, axis not shown) [Compound 638], for which the half-inhibitory concentration (IC50) is ≤ 100 nM.

Consider `C=C(C)C(=O)N1CC[C@H](N(CC)c2nc(OC[C@@]34CCCN3C[C@H](F)C4)nc3c(F)c(-c4ccc(F)c5sc(N)c(C#N)c45)c(C(F)(F)F)cc23)C1` (atropisomer, axis not shown) [Compound 673], for which the IC50 is ≤ 100 nM.

With `CCN(c1nc(OC[C@@]23CCCN2C[C@H](F)C3)nc2c(F)c(-c3ccc(F)c4sc(N)c(C#N)c34)c(C(F)(F)F)cc12)[C@H]1CCN(C(=O)O[C@@H]2CCOC2)C1` (atropisomer, axis not shown) [Compound 683], the IC50 is ≤ 100 nM.

Take `CCN(c1nc(OC[C@@]23CCCN2C[C@H](F)C3)nc2c(F)c(-c3ccc(F)c4sc(N)c(C#N)c34)c(C(F)(F)F)cc12)[C@H]1CCN(C(=O)[C@@H]2C[C@@H]2C)C1` (atropisomer, axis not shown) [Compound 689]: the half-inhibitory concentration (IC50) lay in the range of 100 to 1000 nM.

For the compound `CCN(c1nc(OC[C@@]23CCCN2C[C@H](F)C3)nc2c(F)c(-c3ccc(F)c4sc(N)c(C#N)c34)c(C(F)(F)F)cc12)[C@@H]1CC(=O)N(C2CC2)C1` (atropisomer, axis not shown) [Compound 703], the IC50 was 1000 to 10000 nM.

The compound `CCN(c1nc(OC[C@@]23CCCN2C[C@H](F)C3)nc2c(F)c(-c3ccc(F)c4sc(N)c(C#N)c34)c(C(F)(F)F)cc12)[C@H]1CCN(C(=O)c2ccns2)C1` (atropisomer, axis not shown) [Compound 726] displayed an IC50 of 100 to 1000 nM.

On to `CCN(c1nc(OC[C@@]23CCCN2C[C@H](F)C3)nc2c(F)c(-c3ccc(F)c4sc(N)c(C#N)c34)c(C(F)(F)F)cc12)[C@H]1CCN(C(=O)N(C)C)[C@@H]1C` (atropisomer, axis not shown) [Compound 749], for which the IC50 was ≤ 100 nM.

For `CCN(c1nc(OC[C@@]23CCCN2C[C@H](F)C3)nc2c(F)c(-c3ccc(F)c4sc(N)c(C#N)c34)c(C(F)(F)F)cc12)[C@H]1C[C@@H](C)N(C(=O)[C@H]2CCO2)C1` (atropisomer, axis not shown) [Compound 752], the half-inhibitory concentration (IC50) fell in the range of 100 to 1000 nM.

Turning to `CCN(c1nc(OC[C@@]23CCCN2C[C@H](F)C3)nc2c(F)c(-c3ccc(F)c4sc(N)c(C#N)c34)c(C(F)(F)F)cc12)[C@H]1C[C@H]2CCC(=O)N2C1` (atropisomer, axis not shown; (aR)) [Compound 573, 2-amino-4-((S)-4-(ethyl((2S,7aR)-5-oxohexahydro-1H-pyrrolizin-2-yl)amino)-8-fluoro-2-(((2R,7aS)-2-fluorotetrahydro-1H-pyrrolizin-7a(5H)-yl)methoxy)-6-(trifluoromethyl)quinazolin-7-yl)-7-fluorobenzo[b]thiophene-3-carbonitrile], the half-inhibitory concentration (IC50) is ≤ 100 nM.

`[2H]C1([2H])O[C@@H]2C[C@H]1N(c1nc(OC[C@@]34CCCN3C[C@H](F)C4)nc3c(F)c(-c4ccc(F)c5sc(N)c(C#N)c45)c(C(F)(F)F)cc13)C2` [Compound 371] came in with an IC50 of 1000 to 10000 nM.

As for `CCN(c1nc(OC[C@@]23CCCN2C[C@H](F)C3)nc2c(F)c(-c3ccc(F)c4sc(N)c(C#N)c34)c(C(F)(F)F)cc12)[C@H]1CCN(C(=O)OC)C1` [Compound 394], the half-maximal inhibitory concentration (IC50) was in the range of 100 to 1000 nM.

In the case of `CCN(c1nc(OC[C@@]23CCCN2C[C@H](F)C3)nc2c(F)c(-c3ccc(F)c4sc(N)c(C#N)c34)c(C(F)(F)F)cc12)[C@H]1CCN(C(=O)C2CC2(F)F)C1` (stereo partly shown) [Compound 581], the concentration for half-maximal inhibition (IC50) was ≤ 100 nM.

Regarding `N#Cc1c(N)sc2c(F)ccc(-c3c(C(F)(F)F)cc4c(N5CCn6nc(C(=O)N7CCOCC7)cc6C5)nc(OCC56CCCN5CC(F)C6)nc4c3F)c12` (stereo not shown) [Compound 646], the concentration for half-maximal inhibition (IC50) fell in the range of 100 to 1000 nM.

As to `CCN(c1nc(OC[C@@]23CCCN2C[C@H](F)C3)nc2c(F)c(-c3ccc(F)c4sc(N)c(C#N)c34)c(C(F)(F)F)cc12)[C@H]1CCN(C(=O)C2C[C@@H]2F)C1` (stereo partly shown) [Compound 692], the IC50 was ≤ 100 nM.

For the compound `N#Cc1c(N)sc2c(F)ccc(-c3c(C(F)(F)F)cc4c(N(C5CC5)[C@H]5CCS(=O)(=O)C5)nc(OC[C@@]56CCCN5C[C@H](F)C6)nc4c3F)c12` [Compound 702], the half-maximal inhibitory concentration (IC50) was > 10000 nM.

`CCN(c1nc(OC[C@]23CCCN2C[C@H](F)C3)nc2c(F)c(-c3ccc(F)c4sc(N)c(C#N)c34)c(C(F)(F)F)cc12)[C@H]1CCN(C(=O)C(C)C)C1` [Compound 705] had an IC50 of 100 to 1000 nM.

With `CCN(c1nc(OC[C@@H]2C[C@@H](OC)CN2C)nc2c(F)c(-c3ccc(F)c4sc(N)c(C#N)c34)c(C(F)(F)F)cc12)[C@H]1CCN(C(=O)C(C)C)C1` [Compound 706], the IC50 fell in the range of 1000 to 10000 nM.

The compound `Cc1c(C(=O)N2CCOCC2)nn2c1CN(c1nc(OCC34CCCN3CC(F)C4)nc3c(F)c(-c4ccc(F)c5sc(N)c(C#N)c45)c(C(F)(F)F)cc13)CC2` (stereo not shown) [Compound 741] registered a half-maximal inhibitory concentration (IC50) of 100 to 1000 nM.

Turning to `Cc1c(C(=O)N2CCCC2)nn2c1CN(c1nc(OCC34CCCN3CC(F)C4)nc3c(F)c(-c4ccc(F)c5sc(N)c(C#N)c45)c(C(F)(F)F)cc13)CC2` (stereo not shown) [Compound 744], the IC50 fell in the range of 100 to 1000 nM.
